Test results from PMC7076013 (Scientific Reports, 2020).

Experiments:
Type in all cases: cell-based, human
A375 cells [1] = test: Light microscopy of A375 cultures (oval vs. fibroblast-like cells); details: A375, treated cells, 48 h
From the text: It is known that the A375 cell line has a heterogeneous morphology with a subpopulation of highly metastatic oval cells. […] Thus, it can be concluded that compound 5 affected the two populations in different manners with a stronger effect on the metastatic oval cells.

A375 cells [2] = test: Caspase activation (ApoStat), A375; details: A375, 48 h
Procedure: The results were ex pressed as a p er centage of a v alue obtained for the untr eated control cells that was arbitrarily set to be 100%. A non- linear regression analysis of obtained results was done b y using Gr aphPad Prism software to calculat e IC50 values.
3.3. AnnexinV-FITC/P I and caspase det ection.
A375 cells were treated with 5 for 48 h, trypsinized, and stained with AnnexinV-FITC (Ann) or propidium iodide (PI), or apostat as proposed by the manufacturer. C ells were anal yz ed b y C yFlow® Space Part ec u sing the PartecFloM ax ® software.
3.4. Cell staining with CFSE.
(§1) To quantify cell division rate, cells were incubated for 10 min at 37 °C in the presence of […]
subsequentl y quantified using flow c ytomet r y.
Cell motilit y and proliferation was anal yz ed using wound healing assa y. A375 and 518A2 cells were cultivated in 6-well plates until 80% of confluence in monola yers w as reached. Th e scratch was made using a steri le pipette tip which was drawn across the center of the wells. The scratch ed cell la yers w ere wash ed twice with fres h PBS to remove loose or damaged cells. Cells […]
4% paraformald eh yde (PFA) for 10 min at room temperature . The wounds were digitally photographed using a Ni kon inverted microscope TS2 with 5 MPIX cam era.
3.6. Measurement of intracellular nitric oxide

518A2 cells [3] = test: Ann/PI apoptosis and caspase activation, 518A2; details: 518A2, 48 h
A375 cells [4] = test: Scratch (wound healing) test, A375; details: A375, treated cells, IC50 dose, 48 h; control decreased from 172 ± 69 to 127 ± 13
Procedure: (§2) It was observed that the wound in the control of the A375 cells decreased from 172 ± 69 μm to 127 ± 13 μm, compared to the treated cells where it stayed at 177 ± 32 μm. […] (Fig. 10A).To confirm this, the cell proliferation rate was determined after 72 h of incubation in the presence of 5 of the carboxyfluorescein succinimidyl ester (CFSE)-stained cells. […] These findings were further confirmed by fluorescence microscopy of 4′,6-diamidino-2-phenylindole (DAPI)-stained cells (Fig. 10C), for which predominantly large nuclei with scarce nucleoli characteristic for interphase were observed on treatment of A375 cells with 5[60]. In addition, sporadic oblong nuclei with condensed chromatin, typical for apoptosis, were also observed (25 ± 9%). On the other hand in the DAPI-stained 518A2 cells typical apoptotic shrunken nuclei and apoptotic bodies were dominant (60 ± 2%)[61]. The different modes of action on the two melanoma cell lines indicate that cell specific characteristics define the outcome of the treatment with 5. […] Recent data on the compensatory proliferation in response to induced apoptotic cell death in the tumor tissue even favor a nonaggressive approach in the therapy of advanced malignancy. […]
as §1
(§3) subsequentl y quantified using flow c ytomet r y. […]

518A2 cells [5] = test: Scratch (wound healing) test, 518A2; details: 518A2, IC50 dose, 48 h
Procedure: as §2, §1, §3

A375 cells [6] = test: CFSE cell proliferation, A375; details: A375, 72 h
Procedure: as §2, §1, §3

A375 cells [7] = test: Fluorescence microscopy of DAPI-stained cells, A375; details: A375, 72 h
Procedure: (§4) It was observed that the wound in the control of the A375 cells decreased from 172 ± 69 μm to 127 ± 13 μm, compared to the treated cells where it stayed at 177 ± 32 μm. […] (Fig. 10A).To confirm this, the cell proliferation rate was determined after 72 h of incubation in the presence of 5 of the carboxyfluorescein succinimidyl ester (CFSE)-stained cells. […] These findings were further confirmed by fluorescence microscopy of 4′,6-diamidino-2-phenylindole (DAPI)-stained cells (Fig. 10C), for which predominantly large nuclei with scarce nucleoli characteristic for interphase were observed on treatment of A375 cells with 5[60]. In addition, sporadic oblong nuclei with condensed chromatin, typical for apoptosis, were also observed (25 ± 9%). On the other hand in the DAPI-stained 518A2 cells typical apoptotic shrunken nuclei and apoptotic bodies were dominant (60 ± 2%)[61]. The different modes of action on the two melanoma cell lines indicate that cell specific characteristics define the outcome of the treatment with 5. […] Recent data on the compensatory proliferation in response to induced apoptotic cell death in the tumor tissue even favor a nonaggressive approach in the therapy of advanced malignancy.

518A2 cells [8] = test: Fluorescence microscopy of DAPI-stained cells, 518A2; details: 518A2, 72 h
Procedure: as §4

A375 cells [9] = test: Intracellular NO (DAF), A375; details: A375, 48 h; untreated 40 ± 7
Procedure: (§5) Given that analogue 5 is designed for NO release, the intracellular release of nitric oxide and production of reactive oxygen species (ROS)/reactive nitrogen species (RNS) was measured by means of redox-sensitive dyes — 4-amino-5-methylamino-2′,7′-difluorofluorescein diacetate (DAF) and dihydrorhodamine-123 (DHR) — after exposure for 48 h (Fig. 11). […] It is well documented that highly intensified production of ROS/RNS is connected with extreme cell damage and consequent cell death, whereas moderate ROS production is involved in the regulation of intracellular processes often involved in cell cycle arrest, proliferation, and differentiation[63],[64]. Apart from the moderate intracellular NO release, it was important to evaluate whether 5 released NO extracellularly. The production of NO from a nitrate group is a three-electron reduction process that can happen by a number of possible 2e^– and 1e^– pathways, commonly involving the initial liberation of a nitrite. A common method of detecting the release of NO in the extracellular compartment is the detection of nitrite ions by the Griess reaction, which quantifies the nitrite resulting from the oxidation of NO[66],[67]. […] Introduction of a nitrate moiety was also found to be beneficial in the case of rofecoxib. […]

518A2 cells [10] = test: Intracellular NO (DAF), 518A2; details: 518A2, 48 h; untreated 44.9 ± 5.9
Procedure: as §5

518A2 cells [11] = test: Intracellular ROS/RNS (DHR), 518A2; details: 518A2, 48 h; untreated 70.7 ± 5.5
Procedure: as §5

4-[4-(methylnitrooxy)phenyl]-3-(1,2-dicarba-closo-dodecaboranyl)furan-2(5 H)-one [Compound 5]
% of oval cells (A375 cells [1]; control 46 ± 2.8): 28 ± 2.6% | % of fibroblast-like cells (A375 cells [1]; control 54 ± 3.2): 72 ± 7.4% | total caspase activity (ApoStat) (A375 cells [2]): only a slight enhancement of total caspase activity | apoptosis (Ann/PI, caspase) (518A2 cells [3]): strong caspase-dependent apoptosis | wound width in scratch test (A375 cells [4]): 177 ± 32 μm | wound in scratch test (518A2 cells [5]): impossible to distinguish the edges of the wound | elevation of % of undivided cells (CFSE) vs control (A375 cells [6]): 38 ± 8% | oblong nuclei with condensed chromatin, typical for apoptosis (DAPI) (A375 cells [7]): 25 ± 9% | apoptotic shrunken nuclei and apoptotic bodies (DAPI) (518A2 cells [8]): 60 ± 2% | intracellular NO, mean fluorescence (DAF) (A375 cells [9]): 60.5 ± 9.1 | intracellular NO, mean fluorescence (DAF) (518A2 cells [10]): 97.7 ± 1.2 | ROS/RNS production, mean fluorescence (DHR) (518A2 cells [11]): 65.6 ± 0.9
